Source: patent US8455649B2, “Insecticidal substituted azinyl derivatives” (Dow AgroSciences, LLC, priority 2007, dated 2013)
Like-named read-outs stand apart in the source and are kept apart here.

How the values were obtained:
[1] = system: Beet Armyworm (Spodoptera exigua); experiment: Insecticidal diet-surface test for beet armyworm; format: in vivo; conditions: 120 h, read-out: LAPHEG AVG % Mortality (50 μg/cm^2)
Experimental: (§1) The compounds identified in Table 1 were tested against beet armyworm and corn earworm as follows:
(§2) Insecticidal Test for Corn Earworm (Helicoverpa zea) and Beet Armyworm (Spodoptera exigua).
(§3) To prepare test solution, the test compound was formulated at 2000 ppm solution as 4 mg/2 mL of 9 acetone:1 tap water. 50 μL of the 2000 ppm (equivalent to 50 μg/cm^2 dose on diet surface area) test solution was pipetted upon the surface of 1 mL of lepidopteran diet (Southland Multi-Species Lepidopteran Diet) contained in each of eight wells per insect species (one well=1 replication). A second-instar corn earworm and beet armyworm was placed upon the treated diet in each well once the solvent had air-dried. Trays containing the treated diet and larvae were covered and then held in a growth chamber at 25° C., 50-55% RH, and 16 hr light:8 hr dark for 5 days. Observation were conducted 5 days after treatment and infestation. The number of dead insects of 8 per species per treatment was then determined and the results are given in Table 2 as a percent control at a dose of […].

[2] = system: Corn Earworm (Helicoverpa zea); experiment: Insecticidal diet-surface test for corn earworm; format: in vivo; conditions: 120 h, read-out: HELIZE AVG % Mortality (50 μg/cm^2)
Experimental: as §1, §2, §3

[3] = second-instar larvae on treated diet, 50 μg/cm^2 on diet surface, 5 days after treatment, 8 insects per treatment

Structure (SMILES)	mortality at 50 µg/cm2 [1, 3]	mortality at 50 µg/cm2 [2, 3]	mortality at 50 µg/cm2 [2]	mortality at 50 µg/cm2 [1]
CN(C(=O)Nc1nc(OCC(F)(F)F)c(Cl)c(OCC(F)(F)F)n1)c1ccc(OC(F)(F)F)cc1 [Compound 138]	100%	100%	–	–
CN(C(=O)Nc1nc(OCC(F)(F)F)cc(OCC(F)(F)F)n1)c1c(F)cccc1F [Compound 159]	100%	0%	–	–
O=C1CN(c2ccc(OC(F)(F)F)cc2)C(=O)N1c1nc(OCC(F)(F)F)cc(OCC(F)(F)F)n1 [Compound 30]	88%	100%	–	–
O=C(Nc1ccc(SC(F)(F)F)cc1)Nc1nc(OCC(F)(F)F)cc(OCC(F)(F)F)n1 [Compound 58]	100%	100%	–	–
CCc1cc(Br)ccc1N(C)C(=O)Nc1nc(OCC(F)(F)F)cc(OCC(F)(F)F)n1 [Compound 157]	100%	100%	–	–
O=C(Nc1ccc(C(F)(F)F)nc1)N(COCc1ccccc1)c1nc(OCC(F)(F)F)cc(OCC(F)(F)F)n1 [Compound 87]	100%	100%	–	–
O=C(Nc1nc(OCC(F)(F)F)cc(OCC(F)(F)F)n1)N(c1ccc(OC(F)(F)F)cc1)C(F)(F)F [Compound 93]	100%	100%	–	–
O=C(Nc1ccc(OC(F)(F)C(F)F)cc1)Nc1nc(OCC(F)(F)F)cc(OCC(F)(F)F)n1 [Compound 14]	100%	100%	–	–
CCOC(=O)N(C(=O)N(COCc1ccccc1)c1nc(OCC(F)(F)F)cc(OCC(F)(F)F)n1)c1ccc(C(F)(F)F)cc1 [Compound 36]	100%	–	100%	–
O=C(Nc1ccc(C(F)(F)F)cc1)Nc1nc(Cl)cc(OCC(F)(F)F)n1 [Compound 97]	100%	100%	–	–
COCN(C(=O)N(COCc1ccccc1)c1nc(OCC(F)(F)F)cc(OCC(F)(F)F)n1)c1ccc(C(F)(F)F)cc1 [Compound 37]	100%	100%	–	–
CN(C(=O)Nc1nc(OCC(F)(F)F)cc(OCC(F)(F)F)n1)c1ccc(Br)nc1 [Compound 42]	100%	100%	–	–
FC(F)(F)COc1cc(OCC(F)(F)F)nc(NC(=S)Nc2ccc(Br)cc2)n1 [Compound 129]	100%	100%	–	–
CCNCCNc1cc(OCC(F)(F)F)nc(NC(=O)Nc2ccc(C(F)(F)F)cc2)n1 [Compound 98]	100%	100%	–	–
O=C(Nc1ccc(S(=O)(=O)C(F)(F)F)cc1)Nc1nc(OCC(F)(F)F)cc(OCC(F)(F)F)n1 [Compound 59]	0%	100%	–	–
CN(C(=O)Nc1cc(OCC(F)(F)F)nc(OCC(F)(F)F)n1)c1ccc(C(F)(F)F)cc1 [Compound 107]	100%	100%	–	–
CC(C)(C)COCN(C(=O)Nc1nc(OCC(F)(F)F)cc(OCC(F)(F)F)n1)c1ccc(C(F)(F)F)cc1 [Compound 61]	100%	100%	–	–
CN(C(=O)Nc1nc(OCC(F)(F)F)cc(OCC(F)(F)F)n1)c1ccc(Br)c(C(F)(F)F)c1 [Compound 181]	100%	100%	–	–
FC(F)(F)COc1cc(OCC(F)(F)F)nc(NC(=S)Nc2ccc(C(F)(F)F)cc2)n1 [Compound 130]	100%	100%	–	–
CN(C(=O)Nc1nc(OCC(F)(F)F)cc(OCC(F)(F)F)n1)c1ccc(C(F)(F)F)c(Cl)c1 [Compound 153]	100%	100%	–	–
COCN(C(=O)N(COCc1ccccc1)c1nc(OCC(F)(F)F)cc(OCC(F)(F)F)n1)c1ccc(Br)cc1 [Compound 68]	100%	100%	–	–
O=C(Nc1ccc(I)cc1)Nc1nc(OCC(F)(F)F)cc(OCC(F)(F)F)n1 [Compound 54]	100%	100%	–	–
O=C(Nc1ccc(C(F)(F)F)cc1)Nc1nc(OCC(F)(F)F)cc(SCC(F)(F)F)n1 [Compound 6]	0%	63%	–	–
Cc1c(OCC(F)(F)F)nc(NC(=O)N(C)c2ccc(Br)cc2)nc1OCC(F)(F)F [Compound 140]	100%	100%	–	–
CN(C(=O)Nc1nc(OCC(F)(F)F)cc(OCC(F)(F)F)n1)c1ccc(Br)cn1 [Compound 123]	100%	100%	–	–
CN(C(=O)Nc1cc(C(F)(F)F)cc(OCC(F)(F)F)n1)c1ccc(C(F)(F)F)cc1 [Compound 162]	100%	100%	–	–

Structure (SMILES)	mortality at 50 µg/cm2 [1, 3]	mortality at 50 µg/cm2 [2, 3]	mortality at 50 µg/cm2 [2]	mortality at 50 µg/cm2 [1]
CN(C(=O)Nc1nc(OCC(F)(F)C(F)(F)F)cc(OCC(F)(F)C(F)(F)F)n1)c1ccc(C(F)(F)F)cc1 [Compound 176]	100%	100%	–	–
CC(=O)OCN(C(=O)Nc1nc(OCC(F)(F)F)cc(OCC(F)(F)F)n1)c1ccc(C(F)(F)F)cc1 [Compound 38]	100%	100%	–	–
O=C(Nc1ccc(C(F)(F)F)nc1)Nc1nc(OCC(F)(F)F)cc(OCC(F)(F)F)n1 [Compound 24]	100%	100%	–	–
O=C(Nc1nc(OCC(F)(F)F)cc(OCC(F)(F)F)n1)N(c1ccc(C(F)(F)F)cc1)C1CC1 [Compound 156]	100%	100%	–	–
CN(C(=O)Nc1cc(C(F)(F)F)cc(OCC(F)(F)F)n1)c1ccc(OC(F)(F)F)cc1 [Compound 168]	100%	100%	–	–
CCN(C(=O)Nc1nc(OCC(F)(F)F)cc(OCC(F)(F)F)n1)c1ccc(Br)cc1 [Compound 40]	100%	100%	–	–
O=C(Nc1ccc(Br)cc1)Nc1nc(OCC(F)(F)F)cc(OCC(F)(F)F)n1 [Compound 22]	100%	100%	–	–
N#Cc1ccc(NC(=O)Nc2nc(OCC(F)(F)F)cc(OCC(F)(F)F)n2)cc1 [Compound 4]	0%	100%	–	–
O=C(Nc1ccc(C(F)(F)F)cc1)Nc1nc(OCC(F)(F)F)nc(OCC(F)(F)F)n1 [Compound 116]	100%	0%	–	–
CN(C(=O)Nc1nc(OCC(F)(F)F)cc(OCC(F)(F)F)n1)c1ccc(F)cn1 [Compound 125]	88%	100%	–	–
CN(C(=O)Nc1nc(OCC(F)(F)F)nc(OCC(F)(F)F)n1)c1ccc(OC(F)(F)C(F)F)cc1 [Compound 120]	100%	100%	–	–
O=C(Nc1ccc(C(F)(F)F)cc1)Nc1nc(NCC(F)(F)F)cc(OCC(F)(F)F)n1 [Compound 99]	100%	100%	–	–
CN(C(=O)Nc1cc(C(F)(F)F)cc(OCC(F)(F)F)n1)c1ccc(C(F)(F)F)nc1 [Compound 170]	75%	100%	–	–
CN(C(=O)Nc1nc(OCC(F)(F)F)cc(OCC(F)(F)F)n1)c1ccc(C#N)c(Cl)c1 [Compound 92]	–	–	100%	100%
O=C(Nc1ccc(Br)nc1)Nc1nc(OCC(F)(F)F)c(Cl)c(OCC(F)(F)F)n1 [Compound 146]	100%	100%	–	–
CN(C(=O)Nc1nc(OCC(F)(F)F)cc(OCC(F)(F)F)n1)c1ccc(Cl)nc1 [Compound 48]	100%	100%	–	–
CN(C(=O)Nc1nc(OCC(F)(F)F)cc(OCC(F)(F)F)n1)c1ccc(Br)cc1C(F)(F)F [Compound 155]	50%	100%	–	–
CN(C(=O)Nc1nc(OCC(F)(F)F)cc(OCC(F)(F)F)n1)c1ccc(C#N)cn1 [Compound 128]	88%	100%	–	–
CN(C(=O)Nc1nc(OCC(F)(F)F)nc(OCC(F)(F)F)n1)c1ccc(Br)cc1 [Compound 119]	100%	88%	–	–
Cc1c(OCC(F)(F)F)nc(NC(=O)N(C)c2ccc(C(F)(F)F)cc2)nc1OCC(F)(F)F [Compound 141]	100%	100%	–	–
CN(C(=O)Nc1cc(C(F)(F)F)cc(OCC(F)(F)F)n1)c1ccc(Br)cc1 [Compound 167]	50%	100%	–	–
O=C(Nc1ccc(Br)cc1)Nc1nc(OCC(F)(F)F)nc(OCC(F)(F)F)n1 [Compound 117]	100%	0%	–	–
CC(C)N(C(=O)Nc1nc(OCC(F)(F)F)cc(OCC(F)(F)F)n1)c1ccc(OC(F)(F)F)cc1 [Compound 69]	100%	100%	–	–
O=C(Nc1ccc(OC(F)(F)F)cc1)N(COCc1ccccc1)c1nc(OCC(F)(F)F)cc(OCC(F)(F)F)n1 [Compound 43]	100%	100%	–	–
Cc1c(OCC(F)(F)F)nc(NC(=O)Nc2ccc(C(F)(F)F)cc2)nc1OCC(F)(F)F [Compound 147]	88%	100%	–	–
O=C(Nc1cc(OCC(F)(F)F)nc(OCC(F)(F)F)n1)N(CCF)c1ccc(OC(F)(F)F)cc1 [Compound 114]	100%	100%	–	–
